Source: patent US11254663B2 (BRISTOL-MYERS SQUIBB COMPANY, priority 2019, dated 2022)

Molecular target: FXR (Homo sapiens (Human), UniProt Q96RI1)
Experiment: FXR EC50 (FXR agonist potency reported with each Example)
Type: cell-based

FXR, sequence (Q96RI1 262-486): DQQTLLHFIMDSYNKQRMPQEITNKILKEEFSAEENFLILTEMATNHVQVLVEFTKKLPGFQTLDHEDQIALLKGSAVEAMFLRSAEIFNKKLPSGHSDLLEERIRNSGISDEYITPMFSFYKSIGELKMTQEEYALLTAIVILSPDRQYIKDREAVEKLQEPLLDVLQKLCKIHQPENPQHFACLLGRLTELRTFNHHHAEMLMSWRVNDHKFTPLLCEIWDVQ

Q: O=C(N(CC12CCC(c3nc(C4CC4)no3)(CC1)CC2)c1cccc(-c2nc(CCl)co2)c1)C12CC(F)(C1)C2 [Example 14, N-(3-(4-(chloromethyl)oxazol-2-yl)phenyl)-N-((4-(3-cyclopropyl-1,2,4-oxadiazol-5-yl)bicyclo[2.2.2]octan-1-yl)methyl)-3-fluorobicyclo[1.1.1]pentane-1-carboxamide] was tested. Which EC50 did it give?
A: 166 nM

Q: O=C(N(CC12CCC(c3nc(C4CC4)no3)(CC1)CC2)c1cccc(-c2noc(C3CC(F)(F)C3)n2)c1)C12CC(F)(C1)C2 [Example 103, N-((4-(3-cyclopropyl-1,2,4-oxadiazol-5-yl)bicyclo[2.2.2]octan-1-yl)methyl)-N-(3-(5-(3,3-difluorocyclobutyl)-1,2,4-oxadiazol-3-yl)phenyl)-3-fluorobicyclo[1.1.1]pentane-1-carboxamide] was tested. Which EC50 did it give?
A: 227 nM

Q: With CS(=O)(=O)n1cc(-c2cccc(N(CC34CCC(c5nc(C6CC6)no5)(CC3)CC4)C(=O)C34CC(F)(C3)C4)c2)cn1 [Example 159, N-((4-(3-cyclopropyl-1,2,4-oxadiazol-5-yl)bicyclo[2.2.2]octan-1-yl)methyl)-3-fluoro-N-(3-(1-(methylsulfonyl)-1H-pyrazol-4-yl)phenyl)bicyclo[1.1.1]pentane-1-carboxamide] as the compound, how does the EC50 read?
A: 73 nM

Q: For CC(C)(C)c1nc(-c2cccc(N(CC34CCC(c5nc(C6CC6)no5)(CC3)CC4)C(=O)C34CC(F)(C3)C4)c2)no1 [Example 107, N-(3-(5-(tert-butyl)-1,2,4-oxadiazol-3-yl)phenyl)-N-((4-(3-cyclopropyl-1,2,4-oxadiazol-5-yl)bicyclo[2.2.2]octan-1-yl)methyl)-3-fluorobicyclo[1.1.1]pentane-1-carboxamide], which EC50 is on record?
A: 18 nM

Q: How did the EC50 turn out when N#CC1(c2ccc(C34CCC(CN(C(=O)C5CC(C(F)F)C5)c5cccc(-c6nc(C7CC7)no6)c5)(CC3)CO4)cc2)CC1 (stereo not drawn) [Example 141, N-((1-(4-(1-Cyanocyclopropyl)phenyl)-2-oxabicyclo[2.2.2]octan-4-yl)methyl)-N-(3-(3-cyclopropyl-1,2,4-oxadiazol-5-yl)phenyl)-3-(difluoromethyl)cyclobutane-1-carboxamide] was run?
A: 643 nM

Q: COC1(c2nc(-c3cccc(N(CC45CCC(c6nc(C7CC7)no6)(CC4)CC5)C(=O)C45CC(F)(C4)C5)c3)no2)CC1 [Example 147, N-((4-(3-cyclopropyl-1,2,4-oxadiazol-5-yl)bicyclo[2.2.2]octan-1-yl)methyl)-3-fluoro-N-(3-(5-(1-methoxycyclopropyl)-1,2,4-oxadiazol-3-yl)phenyl)bicyclo[1.1.1]pentane-1-carboxamide] was tested. Which EC50 did it give?
A: 79 nM

Q: Which EC50 does the source give for COc1nccc(C23CCC(CN(C(=O)C45CC(F)(C4)C5)c4cccc(-c5nc(C6CC6)no5)c4)(CC2)CC3)n1 [Example 148, N-(3-(3-cyclopropyl-1,2,4-oxadiazol-5-yl)phenyl)-3-fluoro-N-((4-(2-methoxypyrimidin-4-yl)bicyclo[2.2.2]octan-1-yl)methyl)bicyclo[1.1.1]pentane-1-carboxamide] here?
A: 687 nM

Q: For COc1cc(-c2cccc(N(CC34CCC(c5ccc(C(C)(C)C#N)cc5)(CC3)OC4)C(=O)C3CCCC3)c2)ccn1 [Example 224, N-((1-(4-(2-cyanopropan-2-yl)phenyl)-2-oxabicyclo[2.2.2]octan-4-yl)methyl)-N-(3-(2-methoxypyridin-4-yl)phenyl)cyclopentanecarboxamide], which EC50 is on record?
A: 894 nM

Q: With CC(C)(C)c1noc(C23CCC(CN(C(=O)C45CC(F)(C4)C5)c4cccc(-c5noc(C6(C)COC6)n5)c4)(CC2)CC3)n1 [Example 174, N-((4-(3-(tert-butyl)-1,2,4-oxadiazol-5-yl)bicyclo[2.2.2]octan-1-yl)methyl)-3-fluoro-N-(3-(5-(3-methyloxetan-3-yl)-1,2,4-oxadiazol-3-yl)phenyl)bicyclo[1.1.1]pentane-1-carboxamide] as the compound, how does the EC50 read?
A: 40 nM

Q: For CCCc1ncc(-c2cccc(N(CC34CCC(c5nc(C6CC6)no5)(CC3)CC4)C(=O)C34CC(F)(C3)C4)c2)o1 [Example 26, N-((4-(3-cyclopropyl-1,2,4-oxadiazol-5-yl)bicyclo[2.2.2]octan-1-yl)methyl)-3-fluoro-N-(3-(2-propyloxazol-5-yl)phenyl)bicyclo[1.1.1]pentane-1-carboxamide], which EC50 is on record?
A: 72 nM

Q: How did the EC50 turn out when CC(C)(O)c1coc(-c2cccc(N(CC34CCC(c5nc(C6CC6)no5)(CC3)CC4)C(=O)C3CC(C(F)F)C3)c2)n1 (stereo not drawn) [Example 17, N-((4-(3-cyclopropyl-1,2,4-oxadiazol-5-yl)bicyclo[2.2.2]octan-1-yl)methyl)-3-(difluoromethyl)-N-(3-(4-(2-hydroxypropan-2-yl)oxazol-2-yl)phenyl)cyclobutane-1-carboxamide] was run?
A: 309 nM

Q: O=C(N1CCCC1)N(CC12CCC(c3nc(C4CC4)no3)(CC1)CC2)c1cccc(-c2nc(C3CC3)no2)c1 [Example 91, N-((4-(3-cyclopropyl-1,2,4-oxadiazol-5-yl)bicyclo[2.2.2]octan-1-yl)methyl)-N-(3-(3-cyclopropyl-1,2,4-oxadiazol-5-yl)phenyl)pyrrolidine-1-carboxamide] was tested. Which EC50 did it give?
A: 322 nM

Q: Which EC50 does the source give for Cn1nc(-c2cccc(N(CC34CCC(c5nc(C6CC6)no5)(CC3)CC4)C(=O)C3CC(C(F)F)C3)c2)cc1C1CC1 (stereo not drawn) [Example 78, N-((4-(3-cyclopropyl-1,2,4-oxadiazol-5-yl)bicyclo[2.2.2]octan-1-yl)methyl)-N-(3-(5-cyclopropyl-1-methyl-1H-pyrazol-3-yl)phenyl)-3-(difluoromethyl)cyclobutane-1-carboxamide] here?
A: 607 nM

Q: With O=C(C1CCC(F)(F)C1)N(CC12CCC(c3nc(C4CC4)no3)(CC1)CC2)c1cccc(-c2nc(C(F)F)co2)c1 (stereo not drawn) [Example 44, N-((4-(3-cyclopropyl-1,2,4-oxadiazol-5-yl)bicyclo[2.2.2]octan-1-yl)methyl)-N-(3-(4-(difluoromethyl)oxazol-2-yl)phenyl)-3,3-difluorocyclopentane-1-carboxamide] as the compound, how does the EC50 read?
A: 646 nM

Q: For O=C(N(CC12CCC(c3cnc(C(F)(F)F)nc3)(CC1)OC2)c1cccc(-c2noc(C(F)F)n2)c1)C12CC(F)(C1)C2 [Example 182, N-(3-(5-(difluoromethyl)-1,2,4-oxadiazol-3-yl)phenyl)-3-fluoro-N-((1-(2-(trifluoromethyl)pyrimidin-5-yl)-2-oxabicyclo[2.2.2]octan-4-yl)methyl) bicyclo[1.1.1]pentane-1-carboxamide], which EC50 is on record?
A: 2000 nM

Q: Which EC50 does the source give for O=C(C1CC(F)(F)C1)N(CC12CCC(c3nc(C4CC4)co3)(CC1)CC2)c1cccc(-c2cnc(C3CC3)o2)c1 [Example 83, N-((4-(4-cyclopropyloxazol-2-yl)bicyclo[2.2.2]octan-1-yl)methyl)-N-(3-(2-cyclopropyloxazol-5-yl)phenyl)-3,3-difluorocyclobutane-1-carboxamide] here?
A: 590 nM

Q: How did the EC50 turn out when O=C(N(CC12CCC(c3nnc(C4CC4)o3)(CC1)CC2)c1cccc(-c2nc(C3CC3)no2)c1)C12CC(F)(C1)C2 [Example 137, N-(3-(3-cyclopropyl-1,2,4-oxadiazol-5-yl)phenyl)-N-((4-(5-cyclopropyl-1,3,4-oxadiazol-2-yl)bicyclo[2.2.2]octan-1-yl)methyl)-3-fluorobicyclo[1.1.1]pentane-1-carboxamide] was run?
A: 43 nM

Q: Which EC50 does the source give for COc1cccc(-c2cccc(N(CC34CCC(c5nc(C)no5)(CC3)CC4)C(=O)C34CC(F)(C3)C4)c2)c1 [Example 221, 3-fluoro-N-(3′-methoxy-[1,1′-biphenyl]-3-yl)-N-((4-(3-methyl-1,2,4-oxadiazol-5-yl)bicyclo[2.2.2]octan-1-yl)methyl)bicyclo[1.1.1]pentane-1-carboxamide] here?
A: 506 nM
